Columns and labels:
pSTAT3 (pY705-STAT3) = biological target: T1, pSTAT3 (pY705-STAT3) (Homo sapiens, UniProt P40763); experiment: MSD-pSTAT-PBMC Assay (pSTAT3, IL-6 stimulated); format: cell-based; details: PBMC, compound 3 hrs, then 10 ng/mL IL-6 for 10 min; MSD pY705-STAT3; read-out: pSTAT3
T1 construct: host or cells: cryopreserved PBMC
In short: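 Human PBMCs (50,000 cells/well for STAT3, 25,000 for STAT6) treated with compound 3 h, then stimulated 10 min with 10 ng/mL IL-6 or 1 ng/mL IL-4. Lysate pSTAT3 (pY705) or pSTAT6 (pY641) measured by MSD sandwich electrochemiluminescence. Signal minus unstimulated, normalized to DMSO; IC50 by variable-slope nonlinear regression.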

pSTAT6 (pY641-STAT6) = biological target: T2, pSTAT6 (pY641-STAT6) (Homo sapiens, UniProt P42226); experiment: MSD-pSTAT-PBMC Assay (pSTAT6, IL-4 stimulated); format: cell-based; details: compound 3 hrs, then 1 ng/mL IL-4 for 10 min
T2 construct: host or cells: cryopreserved PBMC
T2 sequence (P42226 1-847): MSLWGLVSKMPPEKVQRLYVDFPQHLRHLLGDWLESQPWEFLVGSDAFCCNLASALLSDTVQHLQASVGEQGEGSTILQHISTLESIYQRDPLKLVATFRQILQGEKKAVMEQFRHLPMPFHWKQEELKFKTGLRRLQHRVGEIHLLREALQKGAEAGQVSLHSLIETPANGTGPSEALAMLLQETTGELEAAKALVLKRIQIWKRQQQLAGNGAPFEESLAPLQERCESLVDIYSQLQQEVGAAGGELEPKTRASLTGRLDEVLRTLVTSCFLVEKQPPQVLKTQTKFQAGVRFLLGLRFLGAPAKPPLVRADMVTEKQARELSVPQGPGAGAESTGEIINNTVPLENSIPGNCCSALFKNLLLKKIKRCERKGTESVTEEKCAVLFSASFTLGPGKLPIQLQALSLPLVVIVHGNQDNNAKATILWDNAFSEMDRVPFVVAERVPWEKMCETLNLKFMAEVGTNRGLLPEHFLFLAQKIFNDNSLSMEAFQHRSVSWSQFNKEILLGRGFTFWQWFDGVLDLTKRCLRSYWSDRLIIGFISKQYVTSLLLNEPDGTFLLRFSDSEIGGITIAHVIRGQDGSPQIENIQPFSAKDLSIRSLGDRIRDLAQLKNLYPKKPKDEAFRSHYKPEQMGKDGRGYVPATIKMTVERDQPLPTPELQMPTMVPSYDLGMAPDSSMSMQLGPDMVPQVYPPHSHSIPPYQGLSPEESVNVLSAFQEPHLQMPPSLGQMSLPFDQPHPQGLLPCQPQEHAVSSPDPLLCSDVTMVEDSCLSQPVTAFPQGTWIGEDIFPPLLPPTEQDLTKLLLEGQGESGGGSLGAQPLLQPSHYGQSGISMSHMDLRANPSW
Excerpt: Cryopreserved Peripheral Blood Mononuclear Cells (PBMC) are from AllCells. Recombinant Human IL-4 and IL-6 are from Peprotech. Mouse monoclonal anti-STAT3 antibody, rabbit monoclonal anti-pY705-STAT3 antibody, rabbit monoclonal Anti-pY641-STAT6 antibody, and lysis buffer are from Cell Signaling Technology (CST). Mouse monoclonal anti-STAT6 antibody is from BioLegend. Assay plates, blocker, and anti-rabbit secondary antibody are from Meso Scale Discovery (MSD).
Cryopreserved PBMCs were thawed out and allowed to recover overnight in IMDM+10% heat-inactivated FBS prior to plating 50,000 (STAT3) or 25,000 (STAT6) cells per well in 96-well U-bottom tissue culture plates. Cells were treated with compound for 3 hrs, then stimulated with 10 ng/mL IL-6 (STAT3) or 1 ng/mL IL-4 (STAT6) for 10 min. Cells were then spun down and washed with ice-cold PBS prior to lysing the cell pellet with 1× lysis buffer (CST) with 1× HALT protease and phosphatase inhibitor cocktail (Thermo). Lysates were transferred to and incubated overnight at 4° C. with shaking in QuickPlex 96-well high bind assay plates (MSD) pre-coated overnight with 30 μL per well of 0.6 μg/mL mouse monoclonal anti-STAT3 antibody (STAT3) or 2 μg/mL mouse monoclonal anti-STAT6 antibody (STAT6) in 1×PBS, and pre-blocked for 1 hour with 3% Blocker-A (MSD). Captured protein in the assay plates were then washed and probed with 25 μL per well of 0.25 μg/ml rabbit monoclonal anti-pY705-STAT3 antibody (STAT3) or 0.18 μg/ml rabbit monoclonal Anti-pY641-STAT6 antibody (STAT6) in 1% Blocker-A for 1 hour at room temperature with shaking, then washed and probed with 25 ul per well of 1 ug/mi Sulfo-TAG Labeled Goat Anti-Rabbit Antibody (MSD) in 1% Blocker-A for 1 hour at room temperature with shaking. Assay plates were then washed and 150 μL of 1× Read Buffer-T (MSD) was added to each well prior to reading on an SQ120 MSD Plate Reader. Assay signal from each sample was subtracted by the signal from unstimulated control wells and normalized to DMSO control wells. IC50 values were calculated using Graph Pad Prism Dose-Response Nonlinear Regression with variable slope. For both pSTAT3 and pSTAT6 A=≤100 nM; B=>100-1000 nM; C=>1000-3000 nM; and D=>3 μM.

T1 sequence (P40763 whole entry): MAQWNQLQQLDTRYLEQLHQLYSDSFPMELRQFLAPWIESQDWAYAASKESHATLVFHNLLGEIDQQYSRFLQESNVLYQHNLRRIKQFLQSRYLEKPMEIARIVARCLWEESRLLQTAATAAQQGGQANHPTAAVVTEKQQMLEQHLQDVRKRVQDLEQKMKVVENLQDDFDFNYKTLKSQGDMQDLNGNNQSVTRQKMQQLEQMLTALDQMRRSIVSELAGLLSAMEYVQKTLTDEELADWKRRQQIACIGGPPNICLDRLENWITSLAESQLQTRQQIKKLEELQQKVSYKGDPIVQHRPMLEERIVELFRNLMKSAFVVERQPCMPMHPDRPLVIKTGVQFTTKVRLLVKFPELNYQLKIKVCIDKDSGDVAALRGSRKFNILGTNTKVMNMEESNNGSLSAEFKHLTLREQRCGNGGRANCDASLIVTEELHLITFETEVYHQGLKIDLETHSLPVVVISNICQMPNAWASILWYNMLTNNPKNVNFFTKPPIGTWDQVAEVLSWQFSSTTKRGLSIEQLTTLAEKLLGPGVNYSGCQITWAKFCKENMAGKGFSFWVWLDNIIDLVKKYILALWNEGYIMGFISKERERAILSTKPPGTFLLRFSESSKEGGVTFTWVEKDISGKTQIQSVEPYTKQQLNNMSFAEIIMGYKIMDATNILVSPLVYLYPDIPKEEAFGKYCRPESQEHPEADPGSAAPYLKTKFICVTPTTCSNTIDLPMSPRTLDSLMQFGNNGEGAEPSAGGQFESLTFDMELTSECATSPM

Row | Structure (SMILES) | IC50 (pSTAT3 (pY705-STAT3)) [nM] | IC50 (pSTAT6 (pY641-STAT6)) [nM]
1 | CC(C)OC(=O)[C@H](C)NP(=O)(Cc1ccc2sc(C(=O)N[C@H]3C[C@@H]4C[C@@H]4C[C@H]4CC[C@@H](C(=O)N5CC(C(=O)N6CCOCC6)C5)N4C3=O)cc2c1)Oc1ccccc1 (stereo partly drawn) [Compound 154, isopropyl (((2-(((3S,6S,7aS, 8aR,9aR)-3-(3-(morpholine-4-carbonyl)azetidine-1-carbonyl)-5-oxodecahydro-1H-cyclopropa[d]pyrrolo[1,2-a]azocin-6-yl)carbamoyl)benzo[b]thiophen-5-yl)methyl) (phenoxy) (phosphoryl)-L-alaninate] | 100 to 1000 | > 3000
2 | CCCC(=O)SCCOP(=O)(Cc1ccc2sc(C(=O)N[C@H]3C[C@@H]4C[C@@H]4C[C@H]4CC[C@@H](C(=O)N5CC(n6ccnc6)C5)N4C3=O)cc2c1)OCCSC(=O)CCC [Compound 158, S,S′-(((((2-(((3S,6S,7aS, 8aR,9aR)-3-(3-(1H-imidazol-1-yl)azetidine-1-carbonyl)-5-oxodecahydro-1H-cyclopropa[d]pyrrolo[1,2-a]azocin-6-yl)carbamoyl)benzo[b]thiophen-5-yl)methyl)phosphoryl)bis(oxy))bis(ethane-2,1-diyl)) dibutanethioate] | 100 to 1000 | > 3000
3 | O=C(OCOP(=O)(OCOC(=O)OC1CCOCC1)C(F)(F)c1ccc2sc(C(=O)N[C@H]3C[C@@H]4C[C@@H]4C[C@H]4CC[C@@H](C(=O)N5CC(C(=O)N6CCOCC6)C5)N4C3=O)cc2c1)OC1CCOCC1 [Compound 162, (((difluoro(2-(((3S,6S,7aS, 8aR,9aR)-3-(3-(morpholine-4-carbonyl)azetidine-1-carbonyl)-5-oxodecahydro-1H-cyclopropa [d]pyrrolo[1,2-a]azocin-6-yl)carbamoyl)benzo[b]thiophen-5-yl)methyl)phosphoryl)bis(oxy)) bis(methylene) bis(tetrahydro-2H-pyran-4-yl) bis(carbonate)] | 100 to 1000 | > 3000
4 | CC(C)OC(=O)[C@H](Cc1ccccc1)NP(=O)(Oc1ccccc1)C(F)(F)c1ccc2sc(C(=O)N[C@H]3C[C@@H]4C[C@@H]4C[C@H]4CC[C@@H](C(=O)N5CC(C(=O)N6CCOCC6)C5)N4C3=O)cc2c1 (stereo partly drawn) [Compound 165, isopropyl ((difluoro(2-(((3S,6S,7aS, 8aR,9aR)-3-(3-(morpholine-4-carbonyl)azetidine-1-carbonyl)-5-oxodecahydro-1H-cyclopropa[d]pyrrolo[1,2-a]azocin-6-yl)carbamoyl)benzo[b]thiophen-5-yl)methyl) (phenoxy)phosphoryl)-L-phenylalaninate] | 1000 to 3000 | > 3000
5 | COCC(C)(C)OC(=O)OCOP(=O)(OCOC(=O)OC(C)(C)COC)C(F)(F)c1ccc2sc(C(=O)N[C@H]3C[C@H]4C[C@H]4C[C@H]4CC[C@@H](C(=O)N5CC(c6cccnc6)C5)N4C3=O)cc2c1 [Compound 168, (((difluoro(2-(((3S,6S,7aR, 8aS,9aR)-5-oxo-3-(3-(pyridin-3-yl)azetidine-1-carbonyl)decahydro-1H-cyclopropa[d]pyrrolo[1,2-a]azocin-6-yl)carbamoyl)benzo[b]thiophen-5-yl)methyl)phosphoryl)bis(oxy)) bis(methylene) bis(1-methoxy-2-methylpropan-2-yl) bis(carbonate)] | < 100 | > 3000

Second part, the compound after the results:

Row | IC50 (pSTAT3 (pY705-STAT3)) [nM] | IC50 (pSTAT6 (pY641-STAT6)) [nM] | Structure (SMILES)
6 | < 100 | 1000 to 3000 | CC(C)(C)C(=O)OCOP(=O)(Cc1ccc2sc(C(=O)N[C@H]3C[C@H]4C[C@H]4C[C@H]4CC[C@@H](C(=O)N5CC(c6ccccn6)C5)N4C3=O)cc2c1)OCOC(=O)C(C)(C)C [Compound 155, ((((2-(((3S,6S,7aR, 8aS,9aR)-5-oxo-3-(3-(pyridin-2-yl)azetidine-1-carbonyl)decahydro-1H-cyclopropa[d]pyrrolo[1,2-a]azocin-6-yl)carbamoyl)benzo[b]thiophen-5-yl)methyl)phosphoryl)bis(oxy)) bis(methylene) bis(2,2-dimethyl-pronanoate)]
7 | < 100 | > 3000 | CC(C)(C)C(=O)OCOP(=O)(Cc1ccc2sc(C(=O)N[C@H]3C[C@@H]4C[C@@H]4C[C@H]4CC[C@@H](C(=O)N5CC(n6ccnc6)C5)N4C3=O)cc2c1)OCOC(=O)C(C)(C)C [Compound 156, ((((2-(((3S,6S,7aS, 8aR,9aR)-3-(3-(1H-imidazol-1-yl)azetidine-1-carbonyl)-5-oxodecahydro-1H-cyclopropa[d]pyrrolo[1,2-a]azocin-6-yl)carbamoyl)benzo[b]thiophen-5-yl)methyl)phosphoryl)bis(oxy)) bis(methylene) bis(2,2-dimethyl-propanoate)]
8 | < 100 | > 3000 | CC(C)OC(=O)OCOP(=O)(Cc1ccc2sc(C(=O)N[C@H]3C[C@@H]4C[C@@H]4C[C@H]4CC[C@@H](C(=O)N5CC(n6ccnc6)C5)N4C3=O)cc2c1)OCOC(=O)OC(C)C [Compound 157, ((((2-(((3S,6S,7aS, 8aR,9aR)-3-(3-(1H-imidazol-1-yl)azetidine-1-carbonyl)-5-oxodecahydro-1H-cyclopropa[d]pyrrolo[1,2-a]azocin-6-yl)carbamoyl)benzo[b]thiophen-5-yl)methyl)phosphoryl)bis(oxy)) bis(methylene) diisopropyl bis(carbonate)]
9 | < 100 | > 3000 | COCC(C)(C)OC(=O)OCOP(=O)(OCOC(=O)OC(C)(C)COC)C(F)(F)c1ccc2sc(C(=O)N[C@H]3C[C@@H]4C[C@@H]4C[C@H]4CC[C@@H](C(=O)N5CC(C(=O)N6CCOCC6)C5)N4C3=O)cc2c1 [Compound 161, (((difluoro(2-(((3S,6S,7aS, 8aR,9aR)-3-(3-(morpholine-4-carbonyl)azetidine-1-carbonyl)-5-oxodecahydro-1H-cyclopropa [d]pyrrolo[1,2-a]azocin-6-yl)carbamoyl)benzo[b]thiophen-5-yl)methyl)phosphoryl)bis(oxy)) bis(methylene) bis(1-methoxy-2-methylpropan-2-yl) bis(carbonate)]
10 | < 100 | > 3000 | O=C(OCOP(=O)(OCOC(=O)OC1CCOCC1)C(F)(F)c1ccc2sc(C(=O)N[C@H]3C[C@H]4C[C@H]4C[C@H]4CC[C@@H](C(=O)N5CC(c6cccnc6)C5)N4C3=O)cc2c1)OC1CCOCC1 [Compound 166, (((difluoro(2-(((3S,6S,7aR, 8aS,9aR)-5-oxo-3-(3-(pyridin-3-yl)azetidine-1-carbonyl)decahydro-1H-cyclopropa[d]pyrrolo[1,2-a]azocin-6-yl)carbamoyl)benzo[b]thiophen-5-yl)methyl)phosphoryl)bis(oxy)) bis(methylene) bis(tetrahydro-2H-pyran-4-yl) bis(carbonate)]

From patent US20250215030A1, “STAT MODULATORS AND USES THEREOF” (Recludix Pharma, Inc., priority 2022, published 2025)
